Tests used:
H2O2 in HeLa cells [1] = test: H2O2 detection after genotoxic stress (BrdU/doxorubicin) in HeLa cells, fluorescence plate reader; assay type: cell-based, Human; details: for fold increase in fluorescence compared to control cells: BrdU (100 μM), about 48 hours
Experimental: (§1) The cells are incubated with QCy-BA (5 μM) for 30 minutes in dark, washed with PBS and analysed to detect QCy-BA dye fluorescence using Infinite M1000 Pro, Tecan, Austria). Wavelengths used for excitation and emission for QCy-BA dye is 400 nm/650 nm. In all ROS measurement assays are done using plate reader and after fluorescence measurements, cells are washed, trypsinized and counted to estimate fluorescence per cell recordings.
To measure ROS generated concomitant to the dose of the DNA damage, HeLa cells are treated with increasing doses (0 to 200 μM) of 5-bromo-2′-deoxyuridine (BrdU). BrdU is a thymidine analog, which gets directly incorporated into DNA and triggers DNA damage response. From previous studies in the art it is known that 48 hours of treatment with BrdU (100 μM) or another DNA damaging agent, doxorubicin at a concentration of 0.1 μM can lead to the induction of cellular senescence.

[2] = Detection limit of H2O2 in presence of QCy-BA (concentration-dependent fluorescence, microplate reader); details: QCy-BA 5 μM, PBS buffer, excitation 400 nm, 3σ/slope
Experimental: Concentration dependent studies are performed using microplate reader. In the well-plates, first QCy-BA (5 μM) in buffer solution is taken, then increasing concentration of H2O2 from 0 to 100 μM is added. Upon excitation at 400 nm, the emission at […] as function time after addition of H2O2 is collected. The fluorescence intensity at […] is plotted as a function of concentration of hydrogen peroxide and each experiment is done in triplicates.
Further, concentration-dependent fluorescence study on slicing of the phenyl boronic acid functionality of QCy-BA (5 μM) in response to sequential addition of H2O2 (5 to 100 μM) is performed. The fluorescence intensity of QCy-BA at 565 nm is decreased in response to added H2O2 in the concentration range of 5 to 50 μM and subsequently reached saturation at 100 μM. A linear relationship (R^2=0.9877) is observed with increasing concentration of H2O2 in the concentration range of 5-50 JAM. Based on 3a/slope the limit of detection (LOD) of H2O2, using the decrease in fluorescence of QCy-BA at 565 nm, is found to be 5.3 μM (FIG. 7). H2O2 is one of the many ROS present in the biological system and it is necessary to test the probe QCy-BA against all of them to assess the selectivity and specificity. […]

[3] = system: H2O2 produced by EGF/Nox pathway in HeLa cells; test: EGF produced H2O2 detection in HeLa cells by flow cytometry (FACS); assay type: cell-based, Human; details: EGF 500 ng/mL about 40 minutes, QCy-BA 5 μM 30 minutes
Experimental: To determine the EGF produced ROS in cells by QCy-BA. In a 12-well plate, […] HeLa cells are plated in each well and incubated for 24 hour. These cells are serum deprived for 1 h. Cells are incubated with EGF (500 ng/mL) for 40 minutes and further treated with NAC (8 mM) for 1 hour. Then cells are treated with QCy-BA (5 μM) for 30 minutes. After 30 minutes incubation of cells with QCy-BA, cells are washed with DPBS (Dulbecco's Phosphate Buffer Saline) to remove the excesses of QCy-BA. These cells are harvested after trypsinization. The samples are subjected to FACS.
Further, the study is extended to visualize the in situ H2O2 generation by a known signaling pathway in live cells. Well-known epidermal growth factor (EGF) binding to epidermal growth factor receptor (EGFR) signaling pathway is selected, which stimulates the production of H2O2 in cells by activating the NOX/PI3K pathways. In this experiment, live HeLa cells are incubated with the epidermal growth factor (EGF) (500 ng/mL) for about 40 minutes under physiological conditions (37° C., pH=7.4).

H2O2 in MRC5 cells = test: H2O2 detection after genotoxic stress (BrdU/doxorubicin) in primary MRC5 cells, fluorescence plate reader; assay type: cell-based, human; details: MRC5, various doses of BrdU and doxorubicin 0.1 μM, 72 h; probe 5 μM
Experimental: as §1
Further, similar experiments are performed in primary MRC5 cells, which are human lung primary fibroblasts. To induce DNA damage, MRC5 cells are similarly treated with various doses of BrdU and doxorubicin (0.1 μM) for 72 h. […] Therefore, above results reveal that QCy-BA is a versatile probe to monitor the elevated levels of H2O2 in both primary and cancer cells in senescence state.

H2O2 in HeLa cells [4] = test: Exogenous and endogenous detection of H2O2 in HeLa cells by flow cytometry (FACS); assay type: cell-based, Human; details: probe about 5 μM, about 30 minutes, absence of NAC
Experimental: In each well, […] cells are plated in 12-well tissue culture plates and incubated for 24 hours. These cells are serum deprived for 1 h. In addition, the serum deprived cells of 6-well are treated with N-acetyl-L-cysteine (NAC) (8 mM) solution and incubated for 1 hour and cells are treated with probe QCy-BA (5 μM) and incubated for 30 minutes. After 30 minutes incubation, the cells are washed with DPBS (Dulbecco's Phosphate buffer saline) to remove the excesses of QCy-BA. These cells are harvested after trypsinization. Exogenously, H2O2 (100 μM) is added to QCy-BA and NAC+QCy-BA treated cells and incubated for 15 min. These samples are subjected to FACS analysis.
NMR, photophysical study. […] Next. QCy-BA for probing cellular (physiologically generated) H2O2 levels in live cells is employed. HeLa cells are incubated with QCy-BA (about 5 μM) for about 30 minutes in the absence and presence of N-acetyl-L-cysteine (NAC), a well-known H2O2 scavenger. […] Thus, probe QCy-BA is also capable of detecting the cellular H2O2 levels in live cells.

H2O2 in HeLa cells [5] = test: Confocal fluorescence imaging of HeLa cells treated with exogenous H2O2; assay type: cell-based, Human; details: QCy-BA 5 μM 30 minutes, then H2O2 100 μM about 15 minutes
Experimental: An Immunofluorescence studies are carried out on HeLa cells to validate exogenous and endogenous detection of H2O2 by QCy-BA. The HeLa cells (10,000 cells) are grown on cover slips. These cells are treated with 5 μM concentration of QCy-BA for 30 minutes. The cells are washed with DPBS for several times to remove the excesses of QCy-BA. The cells are treated with H2O2 (100 μM) for 30 minutes. These samples are subjected to confocal microscopy for immunefluorescence images.
Remarkable selectivity of QCy-BA towards H2O2 and its detection through DNA-assisted switch-on NIR fluorescence led to evaluation of the uptake and application of the probe to detect H2O2 in cells. For this purpose, confocal fluorescence imaging of HeLa cells treated with H2O2 (exogenous) is carried out. First, the HeLa cells are incubated with QCy-BA (5 μM) for about 30 minutes and imaged under a confocal microscope. […] HeLa cells containing QCy-BA are then treated with H2O2 (100 μM) for about 15 minutes, after which the cells are again scanned under a confocal microscope.

[6] = Time-dependent fluorescence study of release kinetics of QCy-BA to QCy-DT in response to H2O2 in presence of Drew-AT; details: QCy-BA 2 μM, Drew-AT 2 μM
Experimental: The time-dependent fluorescence study is carried out to evaluate the release kinetics of QCy-BA (2 μM) to QCy-DT in response to H2O2 (100 μM) stimulus, in presence of Drew-AT duplex. The change in fluorescence intensities at […] and 650 nm corresponding to emission maxima (Emax) of QCy-BA and QCy-DT in presence of Drew-AT is monitored.
The calculation of kinetics parameter using pseudo-first-order conditions for conversion of QCy-BA (2 μM) to QCy-DT in the presence of H2O2 (1 mM) and Drew-AT (2 μM) gave the rate constant of kobs=1.0×10^−3 s^−1 (FIG. 10).

[7] = Fluorescence response of QCy-BA to various reactive oxygen species (selectivity); details: QCy-BA 5 μM; superoxide, hydroxyl radical, tert-butoxy radical, hypochlorite, 100 μM each
Experimental: Further, concentration-dependent fluorescence study on slicing of the phenyl boronic acid functionality of QCy-BA (5 μM) in response to sequential addition of H2O2 (5 to 100 μM) is performed. The fluorescence intensity of QCy-BA at 565 nm is decreased in response to added H2O2 in the concentration range of 5 to 50 μM and subsequently reached saturation at 100 μM. A linear relationship (R^2=0.9877) is observed with increasing concentration of H2O2 in the concentration range of 5-50 JAM. Based on 3a/slope the limit of detection (LOD) of H2O2, using the decrease in fluorescence of QCy-BA at 565 nm, is found to be 5.3 μM (FIG. 7). H2O2 is one of the many ROS present in the biological system and it is necessary to test the probe QCy-BA against all of them to assess the selectivity and specificity. Therefore, the response of QCy-BA towards H2O2 (100 μM) in the presence of other ROS (100 μM) is examined, including tertbutyl hydroperoxide (TBHP), superoxide (O2^−), hydroxyl radical (HO.), tert-butoxy radical (^tBuO.) and hypochlorite (OCl^−).

[8] = Time-dependent NMR analysis of H2O2 triggered slicing of phenyl boronic acid of QCy-BA; details: QCy-BA 2 mM in D2O, H2O2 10 mM, 1H NMR
Experimental: In a preliminary study, time-dependent NMR spectroscopy analysis of QCy-BA is carried out in the presence of H2O2 to assess the stimuli-responsive slicing of phenyl boronic acid functionality (FIG. 1(a)).
The chemical shifts of O—CH2, aromatic region of QCy-BA and appearance of possible new peaks for p-quinonemethide (sliced byproduct corresponding to phenyl boronic acid functionality) upon sequential addition of H2O2 is monitored. […] The peaks at 5.20 ppm and aromatic region 6.5-7.0 ppm correspond to the newly-formed exocyclic C—Hb protons of p-quinone-methide and QCy-DT moieties, respectively. After about 2 hours, a single peak at 5.20 ppm and prominent new peaks at 6.5-7.0 ppm are observed, indicating the complete conversion of QCy-BA to QCy-DT and p-quinonemethide (FIG. 1(b)). This study confirmed the H2O2 stimulus-triggered slicing of phenyl boronic acid functionality of QCy-BA to release QCy-DT, a DNA minor groove binding probe. It is observed that the color of the solution changes from yellow to brown after the addition of H2O2 to QCy-BA, a naked eye detection of the formation of p-quinone-methide and QCy-DT (FIG. 1(c)).

HeLa cells = test: Cytotoxicity on HeLa cells (MTT assay); assay type: cell-based, Human
Experimental: MTT [(3-(4,5-dimethylthiozol-2yl)-2,5-diphenyltetrazolium bromide] assay is carried out with probe QCy-BA on HeLa cells to determine the cytotoxicity effect. In a tissue cultured 96-well plate, 10,000 cells per well are plated and incubated for 24 h, for cells to attach. After completion of 24 h incubation, the attached and healthy cells are treated with various concentrations (25 μM, 12.5 μM, 6.25 μM, 3.125 μM and 0 μM) of probe QCy-BA and further incubated for 24 h. All the treatments are carried out in triplicates. The required concentrations of QCy-BA are made from stock solution in 0.2% DMEM. Stock solution of probe QCy-BA (1 mg/mL) is made in water. Four hours before stipulated time of experiment, MTT-solution (5 mg/mL of 20 μL) is added in each well and incubated to form formazan crystals. The culture medium is completely removed by 1 mL pipette and 200 μL of DMSO is added to dissolve formazan crystals. The purple colored formazan is estimated by determining absorbance at 590 nm with the help of spectrophotometer (Bio-RAD model 1680, Microplate reader). The results are shown in bar graphs (concentration of QCy-BA vs % cell viability).
In order to check the cytotoxicity of probe QCy-BA cell viability assay is performed in HeLa cells. Upon incubation with QCy-BA, more than 80% of the cells are viable even at 25 μM concentration after about 24 hours (FIG. 15).

Compound	fold change of fluorescence (summary for DCFDA) (H2O2 in HeLa cells [1]; BrdU 100 μM and doxorubicin 0.1 μM, 48 h)	fold increase in fluorescence compared to control cells (H2O2 in HeLa cells [1]) [fold]	limit of detection (LOD) of H2O2, using the decrease in fluorescence of QCy-BA at 565 nm [2] [µM]	fluorescence intensity in the PerCP region after EGF stimulation [3]	fluorescence compared to control cells (H2O2 in MRC5 cells)	mean fluorescence intensity of PerCP compared to control cells (H2O2 in HeLa cells [4])	fluorescence in HeLa cells after H2O2 (H2O2 in HeLa cells [5])	time to saturation of emission intensity at 650 nm ([6]; H2O2 100 μM, excitation 564 nm) [h]	rate constant kobs for conversion of QCy-BA to QCy-DT ([6]; pseudo-first-order, H2O2 1 mM, emission 650 nm) [s⁻¹]	effect of other ROS on the probe response (fluorescence at 565 nm) [7]	time to complete conversion of QCy-BA to QCy-DT and p-quinonemethide [8]	viable cells (HeLa cells; 25 μM, about 24 hours)	toxicity (in words) (HeLa cells; standard working concentration about 5 μM, 24 hours)
CC(=O)Oc1cc2c(cc1Cl)C(c1ccccc1C(=O)O)c1cc(Cl)c(OC(C)=O)cc1O2 [DCFDA, 2′,7′-dichlorofluorescin diacetate]	3-4 fold	3											
C[n+]1c(/C=C/c2ccc(OCc3ccc(B(O)O)cc3)c(/C=C/c3sc4ccccc4[n+]3C)c2)sc2ccccc21.[I-].[I-] [QCy-BA, 4-((N, N-dimethyl, 2,4-bis((E)-2-(benzo[d]thiazol-2-ylinium)vinyl)phenoxy)methyl)phenylboronic acid]		~10	5.3	strong fluorescence intensity	increase in fluorescence compared to control cells in a dose-dependent manner	increase in mean fluorescence intensity of PerCP	strong fluorescence in the red channel with maximum localization in the cell nucleus	≥ 4	0.001	very minimal or no effect	about 2 hours	more than 80%	non-toxicity

— patent US10544167B2, “Compounds as stimuli-responsive probes, methods and applications thereof” (JAWAHARLAL NEHRU CENTRE FOR ADVANCED SCIENTIFIC RESEARCH, priority 2015, dated 2020)
